Experiments:
[1] = tested on: DIM resistant parasites (LdDR50); assay: DNA fragmentation assay (cell death detection ELISA), DIM resistant; assay type: cell-based, Leishmania donovani; settings: 20 µM
Procedure: Leishmanial cells were cultured in 24-well plates and treated with 20 µM of DIM, DPDIM, DMDIM and DMODIM for different times. Samples were collected at requisite time points and subjected to measurement of DNA fragmentations. Cytoplasmic histone-associated DNA fragments (mononucleosome and oligonucleosomes) formed during apoptosis were detected using a cell death detection ELISA kit (Roche Biochemicals) by spectrophotometric measurement of microtiter plates in a Thermo MULTISKAN EX plate reader at 405 nm. The relative percentages (with respect to samples treated with micrococcal nuclease and normalized to percentage values) were plotted as units of time or drug concentrations as described previously.
The internucleosomal DNA digestion by an endogenous nuclease (genomic DNA fragmentation) is considered as a hallmark of apoptotic cell death. […] To investigate whether these derivatives also do the same, we performed the DNA fragmentation assay with wild type L. donovani AG83 promastigotes and DIM resistant parasites (Fig. 4) by ELISA as described in Materials and Methods. […] DNA fragmentation increased to 85%, 89%, 81% and 71% at 8 h of treatment in wild type parasites. The DIM resistant parasites (LdDR50) have much less effect in DNA fragmentation (13% at 6 h and 17% at 8 h) when treated with 20 µM DIM. On the other hand the extents of DNA fragmentations were 63%, 51% and 40% at 6 h treatment with DPDIM, DMDIM and DMODIM respectively. The extent of fragmentation increased to 82%, 74% and 65% after treatment for 8 h with the drugs as mentioned above.
Figure 4 DIM derivatives-induced fragmentation of genomic DNA in wild type and DIM resistant parasites. Relative percentage of DNA fragmentation measured by cell death detection ELISA kit in L. donovani promastigotes treated with DIM, DPDIM, DMDIM and DMODIM. The experiments were performed three times and representative data from one of these experiments as means ± SD.

[2] = biological target: CT DNA; assay: Spectrofluorometric binding assay (fluorescence quenching); settings: for Kd: CT DNA 10 to 200 µM, 25°C, Scatchard analysis, read-out: dissociation constant (KD)
Procedure: Fluorescence titration was measured using Perkin Elmer, LS55, and Luminescence spectrometer. The intrinsic binding of DIM-derivatives to DNA was performed separately by fluorescence measurements at an excitation wavelength of 335 nm, 265 nm and 338 nm and emission range of 350 to 450 nm, 300 to 450 nm and 380 to 540 nm for DPDIM, DMDIM and DMODIM, respectively. Excitation and emission slit widths were 5 nm and 7.5 nm; 5 nm and 15 nm; and 5 nm and 15 nm for DPDIM, DMDIM and DMODIM, respectively. Background emission (<2%) was corrected by subtraction of spectra of blank buffer, DNA plus sample buffer and compounds plus sample buffer, respectively. Spectral titration was performed with DIM derivatives at 25°C in fluorescence buffer (20 mM Tris-HCL, pH 7.5, 50 mM NaCl and 10 mM MgCl2). CT DNA was added in increasing concentrations (10 to 200 µM), which are indicated in the legend. All the assays were performed in duplicate, titration points are corrected as described above and binding constants for DIM DNA-compound interaction were determined according to following equation: [drawing 2] (Eq–1) where ΔF = Fx−Fo, Fx and Fo representing the florescence intensity of DIM derivatives in the presence or absence of the added total DNA (St), respectively. ΔFmax is the maximum change in the fluorescence intensity. The intercept of the plot on the 1/F axis corresponding to 1/St = 0 measures the 1/Fmax, while the slope gives the estimation of the affinity constant (Ka). The dissociation constant KD = 1/Ka.
Therefore, it was of interest to determine whether DIM derivatives could interact with DNA. Fluorescence quenching assay was performed to determine the interaction between the derivatives of DIM and DNA at different concentrations of DNA (10 to 200 µM). DPDIM has fluorescence emission maximum (λem ^max) at the wavelength of 390 nm with a λex of 335 nm, whereas DMDIM has fluorescence emission maximum at a wavelength of 379 nm with a λex of 265 nm and DMODIM has fluorescence emission maximum at a wavelength of 450 nm with a λex of 338 nm. The excitation and emission slit widths were set at 5 nm and 7.5 nm for DPDIM, 5 nm and 15 nm for DMDIM; and 5 nm and 15 nm for DMODIM. Appropriate blanks corresponding to the buffer were subtracted to correct the background fluorescence. The fluorescence intensity decreases by increasing the concentration of DNA due to quenching reaction. Addition of DNA causes a slight shift of the maximum peak (λ shift) from 390 nm to 386 nm for DPDIM and from 379 nm to 374 nm for DMDIM with a concomitant decrease in fluorescence intensity (Fig. 7A and B). There is no λ shift for DMODIM (Fig. 7C). A progressive change in the fluorescence spectra of three DIM-derivatives on addition of different concentrations of DNA indicated an association between them.
Figure 7 Fluorescence quenching study of DIM derivatives-DNA interaction. (A) CT DNA concentration-dependently quenched DPDIM fluorescence at 390 nm. (B) CT DNA concentration-dependently quenched DMDIM fluorescence at 379 nm. (C) CT DNA concentration-dependently quenched DMODIM fluorescence at 450 nm. The arrow of each figure indicates the change in the emission spectra of DPDIM, DMDIM and DMODIM respectively on addition of CT DNA.

SMILES	fragmentation of DNA ([1]; 6 h) [%]	fragmentation of DNA ([1]; 8 h) [%]	Kd [2] [µM]	affinity to DNA greater compared to DIM ([2]; versus DIM mother compound) [fold]	affinity to DNA less compared to DIM ([2]; versus DIM) [fold]
Cc1[nH]c2ccccc2c1Cc1c(C)[nH]c2ccccc12 [DMDIM, 2,2′-dimethyl 3,3′-diindolyl methane]	51	74	63		
c1ccc(-c2[nH]c3ccccc3c2Cc2c(-c3ccccc3)[nH]c3ccccc23)cc1 [DPDIM, 2,2′-diphenyl 3,3′-diindolyl methane]	63	82	11	2	
c1ccc2c(Cc3c[nH]c4ccccc34)c[nH]c2c1 [DIM, 3, 3′-diindolyl methane, reference compound]	13	17			
COc1ccc2[nH]cc(Cc3c[nH]c4ccc(OC)cc34)c2c1 [DMODIM, 5,5′-dimethoxy 3,3′-diindolyl methane]	40	65	48		~2

From paper PMC3236199, “Development of Derivatives of 3, 3′-Diindolylmethane as Potent Leishmania donovani Bi-Subunit Topoisomerase IB Poisons” (PLoS ONE, 2011)
